Like-named read-outs stand apart in the source and are kept apart here.
How the values were obtained:
[1] = system: amoeba (Acanthamoeba polypohaga) fed Legionella pneumophila (AfLp); format: cell-based; settings: for Active concentration (ppm) required for complete kill (6 log reduction): Amoeba fed Legionella
[2] = system: mixed species consortium of bacteria; experiment: Preservation of 10% CaCO3 suspensions; settings: 10 ppm, pH 7.0, 8.0, 9.0
bacterial consortium = experiment: Preservation of calcium carbonate slurry Hydrocarb 90 (pH 8.7)
[3] = system: bacteria isolated from field; experiment: Efficacy in semi-synthetic metal working fluid; format: cell-based; settings: room temperature, MWF
[4] = system: bacteria isolated from Cooling Tower water; experiment: Efficacy in sterile artificial Cooling Tower water (approx. pH 8.5); format: cell-based; settings: 30° C.
[5] = system: Pseudomonas aeruginosa ATCC 10145; experiment: Bactericidal efficacy in synthetic salts water pH 8.5; format: cell-based; settings: for Dosage required for 3 log10 bacterial reduction (ppm, active): 37° C.
Procedure: A sterile synthetic salts water is prepared and inoculated with Pseudomonas aeruginosa ATCC 10145 at about 10^7 CFU/mL. The synthetic water is prepared to contain (in 1 liter deionized water) the following: CaCl2, 0.2203 g; MgSO4, 0.1847 g; and NaHCO3, 0.2033 g. The final pH of the synthetic cooling water is adjusted to 8.5. Aliquots of the cell suspension are then treated with biocides at selected dosage levels. The same contaminated water sample without biocide is used as control. After incubating at 37° C. for different time intervals, numbers of surviving bacteria are enumerated using a serial dilution method. After incubating for 24 hr, all cell suspensions are reinoculated with Pseudomonas aeruginosa ATCC 10145 at 10^6 CFU/mL. The efficacy results for […]

[6] = Stability against hydrolysis in buffered dilute solutions, HPLC
Free Legionella = format: cell-based, Legionella pneumophila
[7] = system: four bacterial species (Pseudomonas aeruginosa, Klebsiella pneumoniae, Bacillus subtilis, Staphylococcus aureus); experiment: Preservation of kaolin slurry Kaolux HS (pH 6.6); format: cell-based, bacteria
Text: Two samples of kaolin slurries (Kaolux HS [particle size finer than 2 microns, 83.4%; 64.9% solids; pH 6.6] and Kaogloss [particle size finer than 2 microns, 90.7%; 70.1% solids; pH 6.3]), are obtained from Thiele Kaolin Company, Sandersville, Ga. Samples of the two slurries are inoculated with four bacterial species (described in Example 8), sampled to confirm the initial size of the bacterial community, and treated with selected concentrations of DBMAL. Samples for bacterial enumeration are collected after 24 hr and 48 hr incubation periods.

[8] = system: bacteria in Cooling Tower water; experiment: Efficacy in cooling tower water sample (about pH 8.3), serial dilution count; format: cell-based

## NC(=O)C(Br)(Br)C(N)=O [DBMAL, 2,2-Dibromomalonamide]
[1]; 2 hours
  Active concentration (ppm) required for complete kill (6 log reduction): 12.5 ppm
[1]; 24 hours
  Active concentration (ppm) required for complete kill (6 log reduction): 3.12 ppm
[1]; corresponding time points (2 and 24 hours)
  level needed for 6 log kill of AfLp relative to that needed for free cells: about twice
[2]; 2-hr contact
  bacterial counts (FIG. 5): increased inhibition of the bacteria at pH 9.0 versus pH 7.0 and 8.0
[2]; 24 hr contact, limit of detection
  bacterial counts (FIG. 5): 1.0 log10
Bacterial consortium; 5 ppm, 24-hr contact
  change in populations of bacteria (FIG. 6): decrease relatively little
Bacterial consortium; 10 ppm, 24-hr contact
  decrease in numbers of bacteria (FIG. 6): more than 2.5 orders of magnitude
Bacterial consortium; 20 ppm DBMAL, 24-hr contact time
  difference in numbers of bacteria versus samples with 50 ppm DBNPA (FIG. 7): approximately one-quarter
Bacterial consortium; single dose of 20 ppm, 24-hr contact time
  single dose efficacy comparison (FIG. 7): as effective as 50 ppm DBNPA or 16 ppm CMIT
[3]; 2 h
  Minimum dosage (ppm, active) required for at least 3 log10 reduction in bacterial counts: 57 ppm
[3]; 4 h
  Minimum dosage (ppm, active) required for at least 3 log10 reduction in bacterial counts: 44 ppm
[3]; 24 h
  Minimum dosage (ppm, active) required for at least 3 log10 reduction in bacterial counts: 44 ppm
[3]; 48 h
  Minimum dosage (ppm, active) required for at least 3 log10 reduction in bacterial counts: 34 ppm
[3]; 72 h
  Minimum dosage (ppm, active) required for at least 3 log10 reduction in bacterial counts: 26 ppm
[3]; 96 h
  Minimum dosage (ppm, active) required for at least 3 log10 reduction in bacterial counts: 34 ppm
[4]; 1 h
  Minimum biocide dosage (ppm, active) needed for at least 3 log10 bacterial reduction: 15.0 ppm
[4]; 3 h
  Minimum biocide dosage (ppm, active) needed for at least 3 log10 bacterial reduction: 11.0 ppm
[4]; 24 h
  Minimum biocide dosage (ppm, active) needed for at least 3 log10 bacterial reduction: 5.0 ppm
[4]; 48 h, reinoculated
  Minimum biocide dosage (ppm, active) needed for at least 3 log10 bacterial reduction: 5.0 ppm
[4]; 72 h, reinoculated
  Minimum biocide dosage (ppm, active) needed for at least 3 log10 bacterial reduction: 5.0 ppm
[4]; 96 h, reinoculated
  Minimum biocide dosage (ppm, active) needed for at least 3 log10 bacterial reduction: 15.0 ppm
[5]; 1 hr, pH 8.5
  Dosage required for 3 log10 bacterial reduction (ppm, active): 14.8 ppm
[5]; 3 hr, pH 8.5
  Dosage required for 3 log10 bacterial reduction (ppm, active): 6.6 ppm
[5]; 24 hr, pH 8.5
  Dosage required for 3 log10 bacterial reduction (ppm, active): 6.6 ppm
[5]; 48 hr, pH 8.5, reinoculated after 24 hr
  Dosage required for 3 log10 bacterial reduction (ppm, active): 6.6 ppm
[5]; after 48 hour incubation and rechallenge with P. aeruginosa cells
  long term bactericidal efficacy compared with DBNPA: better than DBNPA
[6]; pH 6.9, T = 30 C., 48 hours
  Calculated Percent Reduction of the Active Ingredient: 0%
[6]; pH 6.9, T = 30 C., 72 hours
  Calculated Percent Reduction of the Active Ingredient: 0%
[6]; pH 8, T = −1 C., 48 hours
  Calculated Percent Reduction of the Active Ingredient: 0%
[6]; pH 8, T = −1 C., 72 hours
  Calculated Percent Reduction of the Active Ingredient: 0%
[6]; pH 8, T = −1 C., 96 hours
  Calculated Percent Reduction of the Active Ingredient: 0%
[6]; pH 9, T = −1 C., 48 hours
  Calculated Percent Reduction of the Active Ingredient: 21%
[6]; pH 9, T = −1 C., 72 hours
  Calculated Percent Reduction of the Active Ingredient: 12%
[6]; pH 9, T = −1 C., 96 hours
  Calculated Percent Reduction of the Active Ingredient: 24%
Free Legionella; 2 hours
  Active concentration (ppm) required for complete kill (6 log reduction): 6.25 ppm
Free Legionella; 24 hours
  Active concentration (ppm) required for complete kill (6 log reduction): 1.56 ppm
[7]; 100 ppm to 150 ppm, 48 hr contact time
  change in numbers of viable bacteria (FIG. 3): decrease slightly
[7]; 175 ppm
  decrease in viable bacteria (FIG. 3): approximately one
[7]; concentrations higher than 175 ppm
  reduction in viable bacteria (FIG. 3): at least five
[8]; 12.5 ppm active, 1 hr
  Bacterial log10 reduction after biocide addition: 1.2 log10
[8]; 12.5 ppm active, 48 hrs, re-inoculated
  Bacterial log10 reduction after biocide addition: 5.2 log10
[8]; 12.5 ppm active, 72 hrs, re-inoculated
  Bacterial log10 reduction after biocide addition: 1.2 log10
[8]; 12.5 ppm active, 96 hrs, re-inoculated
  Bacterial log10 reduction after biocide addition: 0.8 log10
[8]; 25 ppm active, 1 hr
  Bacterial log10 reduction after biocide addition: 4.3 log10
[8]; 25 ppm active, 3 hr
  Bacterial log10 reduction after biocide addition: >=5.7 log10
[8]; 25 ppm active, 24 hrs
  Bacterial log10 reduction after biocide addition: >=6.3 log10
[8]; 25 ppm active, 48 hrs, re-inoculated
  Bacterial log10 reduction after biocide addition: 6.0 log10
[8]; 25 ppm active, 72 hrs, re-inoculated
  Bacterial log10 reduction after biocide addition: 3.0 log10
[8]; 25 ppm active, 96 hrs, re-inoculated
  Bacterial log10 reduction after biocide addition: 3.2 log10
[8]; 50 ppm active, 1 hr
  Bacterial log10 reduction after biocide addition: >=5.3 log10
[8]; 50 ppm active, 3 hr
  Bacterial log10 reduction after biocide addition: 5.5 log10
[8]; 50 ppm active, 24 hrs
  Bacterial log10 reduction after biocide addition: >=6.3 log10
[8]; 50 ppm active, 48 hrs, re-inoculated
  Bacterial log10 reduction after biocide addition: >=6.3 log10
[8]; 50 ppm active, 72 hrs, re-inoculated
  Bacterial log10 reduction after biocide addition: 3.8 log10
[8]; 50 ppm active, 96 hrs, re-inoculated
  Bacterial log10 reduction after biocide addition: 4.2 log10
[8]; same active concentration of 12.5 ppm
  duration of effectiveness (>3 log10 killing) compared with DBNPA: one day more
[8]; same active concentration of 50 ppm and 25 ppm
  duration of effectiveness (>3 log10 killing) compared with DBNPA: two days more

Reference: patent publication US20100314318A1, “HALOGENATED AMIDE BIOCIDAL COMPOUNDS AND METHODS FOR TREATING WATER SYSTEMS AT NEAR NEUTRAL TO HIGH PH” (priority 2009, published 2010)
